Laboratory results reported in article PMC3723632, “A Multi-targeted Drug Candidate with Dual Anti-HIV and Anti-HSV Activity” (PLoS Pathogens, 2013).
Converted amounts (≈) assume the structure as drawn. Where two headings read alike, the source gives them in different places.

Columns and labels:
Format in all cases: cell-based
[1] = tested on: HSV-2 (G and clinical isolates); experiment: microbe, parasite or virus in culture; conditions: Human alphaherpesvirus 2, HEL
Procedure: (§1) Figure 2 Antiherpetic activity of test compounds in cell culture. Confluent HEL cell cultures were exposed to 100 TCID50 of clinical virus isolates [wild-type HSV-1 (panel A), wild-type HSV-2 (panel B), TK^− HSV-1 (panel C) and TK^− HSV-2 (panel D)] in the presence of drugs at different concentrations and incubated for 3 days at 37°C. […] Data shown are the means of at least two independent experiments.

[2] = tested on: HSV-1 (KOS and clinical isolates); experiment: microbe, parasite or virus in culture; conditions: Human alphaherpesvirus 1, HEL
Procedure: as §1

HIV-1(IIIB) = experiment: Anti-HIV-1 activity in CD4+ T-lymphocyte CEM cell cultures; conditions: Human immunodeficiency virus 1, CCRF-CEM, virus-induced cytopathicity
Text: (§2) Human CD4 ^+ T-lymphocyte CEM cell cultures were inoculated with HIV-1 and HIV-2 and exposed to adefovir, tenofovir, or PMEO-DAPym. […]

HIV-2(ROD) = experiment: Anti-HIV-2 activity in CD4+ T-lymphocyte CEM cell cultures; conditions: Human immunodeficiency virus 2, CCRF-CEM
Text: as §2

HSV-2 (G) = experiment: HSV-2 infection of primary monocyte/macrophage (M/M) cultures; conditions: for inhibition at 0.0032 µg/mL / inhibition at 0.016 µg/mL / inhibition at 0.08 µg/mL / inhibition at 0.4 µg/mL / inhibition at 2 µg/mL / inhibition at 10 µg/mL / inhibition at 50 µg/mL: Human alphaherpesvirus 2, 144 h, day 6, read-out: Inhibition of viral replication (% to control); for EC50: Human alphaherpesvirus 2; for inhibition of HSV-2 replication: 2- to 10-µg/ml
Procedure: We obtained human PBMC from the blood of healthy seronegative donors using Ficoll–Hypaque density gradient centrifugation. The PBMC were resuspended in RPMI 1640 medium supplemented with 20% heat-inactivated serum and then seeded into 48-well plates (1.8×10^6 cells/well). M/M were separated by adherence onto plastic. After 5 days, non-adherent cells were carefully removed by repeated gentle washings with warm medium, and adherent M/M were cultured for an additional 3 days to mature and to form a monolayer. M/M were estimated to be 10^5 cells/well at the time of infection. […]. Similarly, macrophage cultures were treated with the same concentrations of adefovir and tenofovir. Macrophage cultures were then infected with HSV-2 (G) (100 TCID50) in the presence of the compounds. After 2 h of adsorption, the cultures were extensively washed to remove any residual virus particles. Fresh complete medium and compounds, at the established concentrations, were then added to the cultures. Appropriate positive (infected but not treated) and mock-infected negative (uninfected and untreated) M/M controls were run for each experiment as well. All assays were performed in triplicate. […] We determined the amount of infectious virus in the supernatants 5–6 days after infection using the cytopathic effect assay. Tenfold serially diluted supernatants were added to confluent monolayers of Vero cells in 96-well plates (100 µl/well, 6 parallel wells). […] The titers of virus produced were calculated according to the Reed and Muench method and expressed as 50% tissue culture infective dose per mL (TCID50/mL).

[3] = HSV-2, average of seven TK-deficient clinical isolates
[4] = HSV-2, average of seven clinical isolates
[5] = HSV-1, average of six TK-deficient clinical isolates
[6] = HSV-1, average of six clinical isolates
[7] = HSV-2 (G), human monocyte/macrophages
[8] = HIV-2(ROD), CEM, virus-induced cytopathicity, read-out: EC50

Row | SMILES | EC50 ([1]; HSV-2 (G)) [µg/mL] | EC50 [1, 3] [µg/mL] | EC50 [1, 4] [µg/mL] | EC50 ([2]; HSV-1 (KOS)) [µg/mL] | EC50 [2, 5] [µg/mL] | EC50 [2, 6] [µg/mL] | EC50 (HIV-1(IIIB)) [µg/mL] | Virus production by HSV2-infected macrophages 6 days after infection (CPE reduction) (HSV-2 (G); 0.0032 µg/ml) | Cytopathicity (CPE) on macrophages 6 days after infection % CPE (HSV-2 (G); 0.016 µg/ml) [%] | Virus production by HSV2-infected macrophages 6 days after infection (CPE reduction) (HSV-2 (G); 0.016 µg/ml) | Cytopathicity (CPE) on macrophages 6 days after infection % CPE (HSV-2 (G); 0.08 µg/ml) [%] | Virus production by HSV2-infected macrophages 6 days after infection (CPE reduction) (HSV-2 (G); 0.08 µg/ml) | Virus production by HSV2-infected macrophages 6 days after infection (CPE reduction) (HSV-2 (G); 0.4 µg/ml) | Virus production by HSV2-infected macrophages 6 days after infection (CPE reduction) (HSV-2 (G); 10 µg/ml) | Virus production by HSV2-infected macrophages 6 days after infection (CPE reduction) (HSV-2 (G); 50 µg/ml) | inhibition at 0.0032 µg/mL (HSV-2 (G); 0.0032 µg/ml, M/M) [%] | inhibition at 0.016 µg/mL (HSV-2 (G); 0.016 µg/ml, M/M) [%] | inhibition at 0.08 µg/mL (HSV-2 (G); 0.08 µg/ml, M/M) [%] | inhibition at 0.4 µg/mL (HSV-2 (G); 0.4 µg/ml, M/M) [%] | inhibition at 2 µg/mL (HSV-2 (G); 2 µg/ml, M/M) [%] | also measured
1 | C[C@H](Cn1cnc2c(N)ncnc21)OCP(=O)(O)O [Tenofovir, 9-(2-phosphonylmethoxypropyl)adenine] | 122 ± 51 (≈ 425 µM) | 121 ± 15 (≈ 421 µM) | 139 ± 11 (≈ 484 µM) | 105 ± 20 (≈ 366 µM) | 151 ± 19 (≈ 526 µM) | 125 ± 12 (≈ 435 µM) | 0.36 ± 0.24 (≈ 1.25 µM) | 1.2×10^4 TCID50/ml | 75 | 1.3×10^4 TCID50/ml | 60 | 9×10^3 TCID50/ml | 1.9×10^3 TCID50/ml | No virus | No virus | 14 | 7 | 36 | 86 | 98 | EC50 (HIV-2(ROD)): 0.43 ± 0.41 µg/mL (≈ 1.5 µM); Cytopathicity (CPE) on macrophages 6 days after infection % CPE (HSV-2 (G); 10 µg/ml): 10%; inhibition at 10 µg/mL (HSV-2 (G); 10 µg/ml, M/M): 100%; inhibition at 50 µg/mL (HSV-2 (G); 50 µg/ml, M/M): 100%; EC50 (HSV-2 (G); [7]): 0.2 ± 0.06 µg/mL (≈ 0.696 µM); inhibition of HSV-2 replication (HSV-2 (G); M/M): virtually completely inhibited
2 | Nc1ncnc2c1ncn2CCOCP(=O)(O)O [Adefovir, 9-(2-phosphonylmethoxyethyl)adenine] | 6.3 ± 2.6 (≈ 23.1 µM) | 7.5 ± 1.5 (≈ 27.5 µM) | 5.9 ± 0.9 (≈ 21.6 µM) | 4.7 ± 1.8 (≈ 17.2 µM) | 7 ± 1.4 (≈ 25.6 µM) | 6.2 ± 1 (≈ 22.7 µM) | 0.96 ± 0.24 (≈ 3.51 µM) | 1.6×10^4 TCID50/ml | 60 | 7.2×10^3 TCID50/ml | 40 | 1.8×10^3 TCID50/ml | 8×10^2 TCID50/ml | No virus | No virus | < 0 | 49 | 87 | 94 | 100 | EC50 (HIV-2(ROD); [8]): 1.9 ± 1.1 µg/mL (≈ 6.95 µM); Virus production by HSV2-infected macrophages 6 days after infection (CPE reduction) (HSV-2 (G); 2 µg/ml): No virus; inhibition at 10 µg/mL (HSV-2 (G); 10 µg/ml, M/M): 100%; inhibition at 50 µg/mL (HSV-2 (G); 50 µg/ml, M/M): 100%; EC50 (HSV-2 (G); [7]): 0.016 ± 0.004 µg/mL (≈ 0.0586 µM); EC50 (HSV-2 (G); M/M, range over the compounds): 0.02 to 0.2 µg/mL (≈ 0.0732 to 0.732 µM); inhibition of HSV-2 replication (HSV-2 (G); M/M): virtually completely inhibited
3 | Nc1cc(OCCOCP(=O)(O)O)nc(N)n1 [PMEO-DAPym, 6-phosphonylmethoxyethoxy-2,4-diaminopyrimidine] | 4.4 ± 2.4 (≈ 16.7 µM) | 2.4 ± 0.4 (≈ 9.08 µM) | 2 ± 0.4 (≈ 7.57 µM) | 2.6 ± 1.2 (≈ 9.84 µM) | 2.4 ± 0.6 (≈ 9.08 µM) | 2 ± 0.5 (≈ 7.57 µM) | 0.9 ± 0.4 (≈ 3.41 µM) | 1.5×10^4 TCID50/ml | 80 | 1.35×10^4 TCID50/ml | 55 | 7.5×10^3 TCID50/ml | 9.5×10^2 TCID50/ml | No virus | No virus | < 0 | 3.5 | 46 | 93 | 98 to 100 | EC50 (HIV-2(ROD); [8]): 0.66 ± 0.19 µg/mL (≈ 2.5 µM); Virus production by HSV2-infected macrophages 6 days after infection (CPE reduction) (HSV-2 (G); 2 µg/ml): 2.26×10^2 TCID50/ml; Cytopathicity (CPE) on macrophages 6 days after infection % CPE (HSV-2 (G); 10 µg/ml): 0–5%; inhibition at 10 µg/mL (HSV-2 (G); 10 µg/ml, M/M): 100%; inhibition at 50 µg/mL (HSV-2 (G); 50 µg/ml, M/M): 100%; EC50 (HSV-2 (G); [7]): 0.09 ± 0.03 µg/mL (≈ 0.341 µM); inhibition of HSV-2 replication (HSV-2 (G); M/M): virtually completely inhibited
